Assay results as given in patent publication US5734077A, “Substituted 2,2-dimethyl-omega-phenoxyalkanoic acids and esters” (Adir ET Compagnie, priority 1995, dated 1998).
Like-named read-outs stand apart in the source and are kept apart here.

Columns and labels:
[1] = tested on: human low density lipoproteins (LDLs); assay: protective activity against oxidation of human LDLs induced by copper sulphate (TBARS determination); type: biochemical; settings: copper sulphate 5 μM, 3 hours at 37° C., read-out: IC50, protection against the oxidation of LDLs
Method: The dose-effect relationship of those compounds was compared with that of probucol and a soluble analogue of vitamin E, trolox.
The anti-oxidant activity of the compounds was measured according to the method of Wallin et al. (Analytical Biochemistry, 1993, 208, 10-15).
Human LDLs are incubated for 3 hours at 37° C. in the presence of an oxidising agent, copper sulphate at a concentration of 5 μM, and of the compound to be tested at concentrations ranging from 10^-8 M to 2.5×10^-6 M. A non-oxidised control (LDLs only) and an oxidised control (LDLs plus copper sulphate) are also included in each of the series of tests.
The products of the LDL oxidation reaction are quantified by the colorimetric determination of "thiobarbituric acid reactive substances" (TBARS).
The protective activity of the tested compounds is expressed by the IC50 value, which corresponds to the concentration of product required to inhibit by 50% the oxidation of LDLs observed in the absence of product. The IC50 value was calculated from the dose-response curve.

[2] = tested on: plasma lipids (triglycerides, total cholesterol); assay: hypolipaemic activity in vivo in a diet-induced model of combined hyperlipaemia in the hamster; parameters: species or system Golden Syrian hamster; settings: 200 mg/kg/day per os, 1 week; for change in vivo at 200 mg/kg: Mesocricetus auratus, po, 168 h, hamsters on lipid-rich diet, versus control group, bezafibrate: mean ± sem of five experiments; for hypocholesterolaemic effect compared with bezafibrate (in words) / triglyceride-lowering effectiveness compared with bezafibrate (in words): hamster, bezafibrate 200 mg/kg/day
Method: The hypolipaemic activity of certain representative compounds of the invention was evaluated in vivo in a diet-induced model of combined hyperlipaemia in the hamster.
Golden Syrian hamsters are given a diet rich in lipids (standard diet+0.5% cholesterol+10% cocoa oil) for 3 weeks before the beginning of treatment. That diet induces hypercholesterolaemia and hypertriglyceridaemia.
The products are prepared in tragacanth gum and are administered per os by forced gastric feeding for 1 week at a dose of 200 mg/kg/day. Each product is tested on a group of 6 animals. A placebo group (control) and a group of animals treated with a reference product (bezafibrate at a dose of 200 mg/kg/day) are included in each experiment.
At the end of the treatment, the animals are anaesthetised with ether. Blood is removed by abdominal puncture and the triglycerides and total cholesterol in the serums are determined. Five independent experiments were carried out in accordance with that protocol in order to evaluate the hypolipaemic effect of thirteen compounds of this invention.
The results are shown in Table B. The effect of the treatment is expressed as a percentage variation by comparison with the control group, calculated from the means of the absolute values of triglycerides and of total cholesterol. A negative value thus reflects a hypolipaemic effect of the treatment indicated. The values shown for bezafibrate represent the mean values (±sem) of five experiments.

[3] = read-out: Total cholesterol (% variation/control)
[4] = read-out: Triglycerides (% variation/control)

Compound	IC50 [1]	change in vivo at 200 mg/kg [2, 3]	change in vivo at 200 mg/kg [2, 4]	hypocholesterolaemic effect compared with bezafibrate (in words) [2]	triglyceride-lowering effectiveness compared with bezafibrate (in words) [2]
Cc1c(C)c2c(c(C)c1O)CCC(C)(C=CCCOc1ccc(OCCCC(C)(C)C(=O)O)cc1)O2 (racemic) [Example 17, R,S-2,2-dimethyl-5-{4-[4-(6-hydroxy-2,5,7,8-tetramethyl-3,4-dihydrobenzopyran-2-yl)but-3-enyloxy]phenoxy}pentanoic acid]	960 nM				
Cc1c(C)c2c(c(C)c1O)CCC(C)(CCCCOc1ccc(OCCCC(C)(C)C(=O)O)cc1)O2 (racemic) [Example 18, R,S -2,2-dimethyl-5-{4-[4-(6-hydroxy-2,5,7,8-tetramethyl-3,4-dihydrobenzopyran-2-yl)butyloxy]phenoxy}pentanoic acid]	720 nM	-61%	-79%		
Cc1c(C)c2c(c(C)c1O)CCC(C)(CCCc1cccc(OCCCC(C)(C)C(=O)O)c1)O2 (racemic) [Example 19, R,S-2,2-dimethyl-5-{3-[3-(6-hydroxy-2,5,7,8-tetramethyl-3,4-dihydrobenzopyran-2-yl)-propyl]phenoxy}pentanoic acid]	680 nM				
CC(C)(Oc1ccc(CCNC(=O)c2ccc(Cl)cc2)cc1)C(=O)O [Bezafibrate, bezafibrate, reference compound]		-48 ± 4%	-46 ± 19%		
CC(C)(CCCOc1ccc(CCSc2cc(C(C)(C)C)c(O)c(C(C)(C)C)c2)cc1)C(=O)O [Example 1, 2,2-Dimethyl-5-{4-[2-(3,5-di-tert-butyl-4-hydroxyphenylthio)ethyl]phenoxy}pentanoic acid]	420 nM				
CC(C)(CCCOc1ccc(CCCSc2cc(C(C)(C)C)c(O)c(C(C)(C)C)c2)cc1)C(=O)O [Example 3, 2,2-dimethyl-5-{4-[3-(3,5-di-tert-butyl-4-hydroxyphenylthio)propyl]phenoxy}pentanoic acid]	530 nM	-77%	-87%	hypocholesterolaemic effect at least as great as bezafibrate	statistically at least as effective as bezafibrate
Cc1cc(SCCCc2ccc(OCCCC(C)(C)C(=O)O)cc2)c(C)c(C)c1O [Example 4, 2,2-dimethyl-5-{4-[3-(4-hydroxy-2,3,5-trimethylphenylthio)propyl]phenoxy}pentanoic acid]	460 nM	-48%	-77%		
CC(C)(CCCOc1ccc(OCCCSc2cc(C(C)(C)C)c(O)c(C(C)(C)C)c2)cc1)C(=O)O [Example 5, 2,2-dimethyl-5-{4-[3-(3,5-di-tert-butyl-4-hydroxyphenylthio)propyloxy]phenoxy}pentanoic acid]	550 nM				
CC(C)(CCCOc1cccc(CCSc2cc(C(C)(C)C)c(O)c(C(C)(C)C)c2)c1)C(=O)O [Example 8, 2,2-dimethyl-5-{3-[2-(3,5-di-tert-butyl-4-hydroxyphenylthio)ethyl]phenoxy}pentanoic acid]	380 nM	-59%	-59%		
CC(C)(CCCOc1ccc(OCCCOc2cc(C(C)(C)C)c(O)c(C(C)(C)C)c2)cc1)C(=O)O [Example 12, 2,2-dimethyl-5-{4-[3-(3,5-di-tert-butyl-4-hydroxyphenoxy)propyloxy]phenoxy}pentanoic acid]	640 nM	-63%	-84%	hypocholesterolaemic effect at least as great as bezafibrate	statistically at least as effective as bezafibrate
CC(C)(CCCOc1cccc(CCOc2cc(C(C)(C)C)c(O)c(C(C)(C)C)c2)c1)C(=O)O [Example 13, 2,2-dimethyl-5-{3-[2-(3,5-di-tert-butyl-4-hydroxyphenoxy)ethyl]phenoxy}pentanoic acid]	300 nM	-68%	-84%	hypocholesterolaemic effect at least as great as bezafibrate	statistically at least as effective as bezafibrate
CC(C)(CCCOc1ccc(CCOc2cc(C(C)(C)C)c(O)c(C(C)(C)C)c2)cc1)C(=O)O [Example 16, 2,2-dimethyl-5-{4-[2-(4-hydroxy-3,5-di-tert-butylphenoxy)ethyl]phenoxy}pentanoic acid]	770 nM	-66%	-54%		
CC(C)(CCCOc1cccc(CCCc2cc(C(C)(C)C)c(O)c(C(C)(C)C)c2)c1)C(=O)O [Example 20, 2,2-dimethyl-5-{3-[3-(4-hydroxy-3,5-di-tert-butylphenyl)propyl]phenoxy}pentanoic acid]	1100 nM	-58%	-71%		
CC(C)(Sc1cc(C(C)(C)C)c(O)c(C(C)(C)C)c1)Sc1cc(C(C)(C)C)c(O)c(C(C)(C)C)c1 [Probucol, probucol, reference compound]	5800 nM				
Cc1c(C)c2c(c(C)c1O)CCC(C)(C(=O)O)O2 (centres unmarked) [Trolox, trolox, reference compound]	1600 nM				

Continued, in another order:

IC50 [1]	Compound	change in vivo at 200 mg/kg [2, 3]	change in vivo at 200 mg/kg [2, 4]	hypocholesterolaemic effect compared with bezafibrate (in words) [2]	triglyceride-lowering effectiveness compared with bezafibrate (in words) [2]
210 nM	CC(C)(CCCOc1ccc(CCSc2cc(C(C)(C)C)c(O)c(C(C)(C)C)c2)cc1)C(=O)O [Example 2, 2,2-dimethyl-5-{4-[2-(3,5-di-tert-butyl-4-hydroxyphenylthio)ethyl]phenoxy}pentanoic acid]	-52%	-82%	hypocholesterolaemic effect at least as great as bezafibrate	statistically at least as effective as bezafibrate
170 nM	Cc1cc(SCCCOc2ccc(OCCCC(C)(C)C(=O)O)cc2)c(C)c(C)c1O [Example 6, 2,2-dimethyl-5-{4-[3-(4-hydroxy-2,3,5-trimethylphenylthio)propyloxy]phenoxy}pentanoic acid]	-39%	-59%		
68 nM	Cc1cc(SCCc2cccc(OCCCC(C)(C)C(=O)O)c2)c(C)c(C)c1O [Example 7, 2,2-dimethyl-5-{3-[2-(4-hydroxy-2,3,5-trimethylphenylthio)ethyl]phenoxy}pentanoic acid]	-47%	-83%	hypocholesterolaemic effect at least as great as bezafibrate	statistically at least as effective as bezafibrate
200 nM	Cc1cc(OCCc2ccc(OCCCC(C)(C)C(=O)O)cc2)c(C)c(C)c1O [Example 9, 2,2-dimethyl-5-{4-[2-(4-hydroxy-2,3,5-trimethylphenoxy)ethyl]phenoxy}pentanoic acid]				
240 nM	CC(C)(CCCOc1ccc(CCCOc2cc(C(C)(C)C)c(O)c(C(C)(C)C)c2)cc1)C(=O)O [Example 10, 2,2-dimethyl-5-{4-[3-(3,5-di-tert-butyl-4-hydroxyphenoxy)propyl]phenoxy}pentanoic acid]				
190 nM	Cc1cc(OCCCOc2ccc(OCCCC(C)(C)C(=O)O)cc2)c(C)c(C)c1O [Example 11, 2,2-dimethyl-5-{4-[3-(4-hydroxy-2,3,5-trimethylphenoxy)propyloxy]phenoxy}pentanoic acid]	-55%	-60%		
88 nM	Cc1cc(OCCc2cccc(OCCCC(C)(C)C(=O)O)c2)c(C)c(C)c1O [Example 14, 2,2-dimethyl-5-{3-[2-(4-hydroxy-2,3,5-trimethylphenoxy)ethyl]phenoxy}pentanoic acid]				
97 nM	Cc1cc(OCCCc2ccc(OCCCC(C)(C)C(=O)O)cc2)c(C)c(C)c1O [Example 15, 2,2-dimethyl-5-{4-[3-(4-hydroxy-2,3,5-trimethylphenoxy)propyl]phenoxy}pentanoic acid]	-77%	-93%	hypocholesterolaemic effect at least as great as bezafibrate	statistically at least as effective as bezafibrate
